Test results as given in article PMC6385203, “Mutations in the palm domain disrupt modulation of acid-sensing ion channel 1a currents by neuropeptides” (Scientific Reports, 2019).
Peptide text beside a SMILES is read from it.

Target: T1, ASIC1a N416C (Homo sapiens, UniProt P78348, N416C)
T1 construct: expressed in transfected cells; host or cells: Xenopus laevis oocytes injected with cRNA
T1 sequence (P78348 1-528 N416C): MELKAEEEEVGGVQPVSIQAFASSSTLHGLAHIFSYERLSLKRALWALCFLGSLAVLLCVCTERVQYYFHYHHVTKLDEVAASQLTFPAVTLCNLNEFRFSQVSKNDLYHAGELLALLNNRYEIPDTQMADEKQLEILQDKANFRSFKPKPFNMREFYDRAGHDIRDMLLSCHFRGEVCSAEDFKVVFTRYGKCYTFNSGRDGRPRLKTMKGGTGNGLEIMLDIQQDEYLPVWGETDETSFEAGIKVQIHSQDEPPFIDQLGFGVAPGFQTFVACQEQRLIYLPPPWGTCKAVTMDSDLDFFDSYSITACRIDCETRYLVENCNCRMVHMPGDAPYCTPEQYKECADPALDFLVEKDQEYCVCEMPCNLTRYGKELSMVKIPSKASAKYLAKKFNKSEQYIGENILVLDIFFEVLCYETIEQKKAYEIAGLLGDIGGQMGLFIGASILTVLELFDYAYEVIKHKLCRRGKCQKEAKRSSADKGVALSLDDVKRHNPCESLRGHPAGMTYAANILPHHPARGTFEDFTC
Assay: Disappearance of FRRFa-induced Isust on washout, N416C
Assay type: cell-based
Conditions: washout after 50 μM FRRFa 45 s, n = 9
Description: Figure 6 Mutations of the palm change FRRFa modulation of ASIC1a. Mutants containing “-ET” in their name had been exposed during 3 min to 1 mM MTSET prior to the experiment. (a) Representative current traces of the mutant E418C in the absence and presence of 50 μM FRRFa. (b) Bar graph of the Isust/Ipeak ratio induced by pH5 of WT and mutants as indicated (n = 5–41). For (b,g–i) *p < 0.05; **p < 0.01, ***p < 0.001, ****p < 0.0001, different from WT. (c) Ratio of 50 μM FRRFa-induced increase in Isust/Ipeak (n = 5–41). (d) Ratio of 500 μM FRRFa-induced increase in Isust/Ipeak (n = 5–11). For (b–d) ^#p < 0.05; ^##p < 0.01; ^###p < 0.001; ^####p < 0.0001; ratio different from the ratio in WT. (e) FRRFa concentration-response curve of the Isust/Ipeak current ratio induced by pH5 in oocytes expressing N416C, n = 8. The WT curve is shown for comparison (n = 7–11). (f) Time course of disappearance of the FRRFa-induced sustained current in the N416C mutant and in WT. 50 μM FRRFa was applied for 45 s, and then washed out. […]
Electrophysiological measurements were performed 1–2 days after cRNA injection. Ion currents were recorded using two-electrode voltage-clamp at a holding potential of −60 mV with a Dagan TEV-200 amplifier (Minneapolis, MN). […] The amplitude of the sustained current was measured in the last two seconds of the pH5 perfusion. […]

`N=C(N)NCCC[C@H](NC(=O)[C@H](CCCNC(=N)N)NC(=O)[C@@H](N)Cc1ccccc1)C(=O)N[C@@H](Cc1ccccc1)C(N)=O` [FRRFa, Phe-Arg-Arg-Phe-amide] (H-FRRF-NH2) gave a koff of 0.027 ± 0.003 s⁻¹.
